Source: patent publication US20240300980A1, “HETEROCYCLIC COMPOUNDS AS KRAS INHIBITOR, AND PREPARATION THEREFOR AND USE THEREOF IN TREATMENT” (SHANGHAI KECHOW PHARMA, INC., priority 2021, published 2024)

Test system: AGS cells (KRAS^G12D)
Experiment: Detection of cell proliferation in vitro by MTT/MTS method (cell activity experiment)
Format: cell-based
Conditions: Homo sapiens, AGS, 72 h, AGS cells; MTT/MTS; 3 days of drug treatment; read-out: AGS IC50
Procedure, shortened: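 After 3-day compound exposure (final DMSO 0.5%), viability of AGS (KRAS G12D) cells, plated 1000/well one day before dosing, was measured at 490 nm following 4 h MTT or MTS incubation. IC50 was fitted from dose–effect curves relative to DMSO-treated wells.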

`CC(C)C1CCc2cc(O)cc(-c3ncc4c(N5C[C@H]6CC[C@@H](C5)N6)nc(OC[C@@]56CCCN5C[C@H](F)C6)nc4c3F)c21` (stereo partly drawn) [Example 268, 7-(4-((1R,5S)-3,8-diazabicyclo[3.2.1]octan-3-yl)-8-fluoro-2-(((2R,7aS)-2-fluorotetrahydro-1H-pyrrolizin-7a(5H)-yl)methoxy)pyrido[4,3-d]pyrimidin-7-yl)-1-isopropyl-2,3-dihydro-1H-inden-5-ol] and `[O-][S+]1CCc2cc(O)cc(-c3ncc4c(N5C[C@H]6CC[C@@H](C5)N6)nc(OC[C@@]56CCCN5C[C@H](F)C6)nc4c3F)c21` (stereo partly drawn) [Example 252, 7-(4-((1R,5S)-3,8-diazabicyclo[3.2.1]octan-3-yl)-8-fluoro-2-(((2R,7aS)-2-fluorotetrahydro-1H-pyrrolizin-7a(5H)-yl)methoxy)pyrido[4,3-d]pyrimidin-7-yl)-5-hydroxy-2,3-dihydrobenzo[b]thiophene 1-oxide] cannot be ordered by IC50: 4000 nM for the first, over 2500 nM for the second.

Going from `C#Cc1c(F)ccc2cc(O)cc(-c3ncc4c(N5C[C@H]6CC[C@@H](C5)N6)c(C#N)c(OC[C@@]56CCCN5C[C@H](F)C6)nc4c3F)c12` [Example 191, 4-((1R,5S)-3,8-diazabicyclo[3.2.1]octan-3-yl)-7-(8-ethynyl-7-fluoro-3-hydroxynaphthalen-1-yl)-8-fluoro-2-(((2R,7aS)-2-fluorotetrahydro-1H-pyrrolizin-7a(5H)-yl)methoxy)-1,6-naphthyridine-3-carbonitrile] to `C#Cc1c(F)ccc2cc(O)cc(-c3cc4nc(OC[C@@]56CCCN5C[C@H](F)C6)c(C#N)c(N5C[C@H]6CC[C@@H](C5)N6)c4cn3)c12` [Example 188, 4-((1R,5S)-3,8-diazabicyclo[3.2.1]octan-3-yl)-7-(8-ethynyl-7-fluoro-3-hydroxynaphthalen-1-yl)-2-(((2R,7aS)-2-fluorotetrahydro-1H-pyrrolizin-7a(5H)-yl)methoxy)-1,6-naphthyridine-3-carbonitrile], the IC50 rises from 120 nM to 1550 nM (13-fold). The first is the more potent here.

`C[C@@H]1OCC2(CCN(c3nc(OC[C@@]45CCCN4C[C@H](F)C5)nc4c(F)c(-c5cc(O)cc6ccc(F)c(F)c56)ncc34)CC2)[C@@H]1N` [Example 57, 4-(4-((3S,4S)-4-amino-3-methyl-2-oxa-8-azaspiro[4.5]decan-8-yl)-8-fluoro-2-(((2R, 7aS)-2-fluorotetrahydro-1H-pyrrolizin-7a(5H)-yl)methoxy)pyrido[4,3-d]pyrimidin-7-yl)-5,6-difluoronaphthalen-2-ol] and `C#Cc1c(F)ccc2cc(O)cc(-c3ccc4c(N5CCC6(CC5)CO[C@@H](C)[C@H]6N)nc(OC[C@@]56CCCN5C[C@H](F)C6)nc4c3F)c12` [Example 114, 4-(4-((3S,4S)-4-amino-3-methyl-2-oxa-8-azaspiro[4.5]decan-8-yl)-8-fluoro-2-(((2R, 7aS)-2-fluorotetrahydro-1H-pyrrolizin-7a(5H)-yl)methoxy)quinazolin-7-yl)-5-ethynyl-6-fluoronaphthalen-2-ol] cannot be ordered by IC50: over 2500 nM for the first, over 2500 nM for the second.

Compared with `Oc1cc(-c2ccc3c(N4C[C@H]5CC[C@@H](C4)N5)nc(OC[C@@]45CCCN4C[C@H](F)C5)nc3c2F)c2c(c1)C1CC1C2` (stereo partly drawn) [Example 294, 5-(4-((1R,5S)-3,8-diazabicyclo[3.2.1]octan-3-yl)-8-fluoro-2-(((2R,7aS)-2-fluorotetrahydro-1H-pyrrolizin-7a(5H)-yl)methoxy)quinazolin-7-yl)-1,1a,6,6a-tetrahydrocyclopropa[a]inden-3-ol], `CCC1CCc2cc(O)cc(-c3ccc4c(N5C[C@H]6CC[C@@H](C5)N6)nc(OC[C@@]56CCCN5C[C@H](F)C6)nc4c3F)c21` (stereo partly drawn) [Example 283, 7-(4-((1R,5S)-3,8-diazabicyclo[3.2.1]octan-3-yl)-8-fluoro-2-(((2R,7aS)-2-fluorotetrahydro-1H-pyrrolizin-7a(5H)-yl)methoxy)quinazolin-7-yl)-1-ethyl-2,3-dihydro-1H-inden-5-ol] is 4.6-fold lower in IC50: 65 nM for the first, 14 nM for the second. The second is the more potent here.

`C#Cc1c(F)ccc2cc(O)cc(-c3ncc4c(N5CCC(NS(C)(=O)=O)C5)nc(OC[C@@]56CCCN5C[C@H](F)C6)nc4c3F)c12` (stereo partly drawn) [Example 59, N-(1-(7-(8-ethynyl-7-fluoro-3-hydroxynaphthalen-1-yl)-8-fluoro-2-(((2R, 7aS)-2-fluorotetrahydro-1H-pyrrolizin-7a(5H)-yl)methoxy)pyrido[4,3-d]pyrimidin-4-yl)pyrrolidin-3-yl) methanesulfonamide] and `C#Cc1c(F)ccc2cc(O)cc(-c3ncc4c(N5CCC6(CCCS6)CC5)nc(OC[C@@]56CCCN5C[C@H](F)C6)nc4c3F)c12` [Example 49, 5-ethynyl-6-fluoro-4-(8-fluoro-2-(((2R, 7aS)-2-fluorotetrahydro-1H-pyrrolizin-7a(5H)-yl)methoxy)-4-(1-thia-8-azaspiro[4.5]decan-8-yl)pyrido[4,3-d]pyrimidin-7-yl)naphthalen-2-ol] cannot be ordered by IC50: over 2500 nM for the first, over 10000 nM for the second.

`C#Cc1c(F)ccc2cc(O)cc(-c3ncc4c(-c5cnn(C(=O)CO)c5)nc(OC[C@@]56CCCN5C[C@H](F)C6)nc4c3F)c12` [Example 87, 1-(4-(7-(8-ethynyl-7-fluoro-3-hydroxynaphthalen-1-yl)-8-fluoro-2-(((2R, 7aS)-2-fluorotetrahydro-1H-pyrrolizin-7a(5H)-yl)methoxy)pyrido[4,3-d]pyrimidin-4-yl)-1H-pyrazol-1-yl)-2-hydroxyethan-1-one] and `O=S1(=O)[C@@H]2CC[C@H]1CN(c1nc(OC[C@@]34CCCN3C[C@H](F)C4)nc3c(F)c(-c4cc(O)cc5ccc(F)c(F)c45)ncc13)C2` [Example 29, (1R,5S)-3-(7-(7,8-difluoro-3-hydroxynaphthalen-1-yl)-8-fluoro-2-(((2R,7aS)-2-fluorotetrahydro-1H-pyrrolizin-7a(5H)-yl)methoxy)pyrido[4,3-d]pyrimidin-4-yl)-8-thia-3-azabicyclo [3.2.1]octane 8,8-dioxide] cannot be ordered by IC50: over 10000 nM for the first, over 2500 nM for the second.

`Nc1cc2ccc(F)c(F)c2c(-c2ncc3c(N4C[C@H]5CC[C@@H](C4)N5)nc(OC[C@@]45CCCN4C[C@H](F)C5)nc3c2F)n1` [Example 38, 1-(4-((1R,5S)-3,8-diazabicyclo[3.2.1]octan-3-yl)-8-fluoro-2-(((2R,7aS)-2-fluorotetrahydro-1H-pyrrolizin-7a(5H)-yl)methoxy)pyrido[4,3-d]pyrimidin-7-yl)-7,8-difluoroisoquinolin-3-amine] and `C#Cc1c(F)ccc2cc(O)cc(-c3cnc4c(N5C[C@H]6CC[C@@H](C5)N6)nc(OC[C@@]56CCCN5C[C@H](F)C6)nc4c3)c12` [Example 200, 4-(4-((1R,5S)-3,8-diazabicyclo[3.2.1]octan-3-yl)-2-(((2R,7aS)-2-fluorotetrahydro-1H-pyrrolizin-7a(5H)-yl)methoxy)pyrido[3,2-d]pyrimidin-7-yl)-5-ethynyl-6-fluoronaphthalen-2-ol] cannot be ordered by IC50: over 2500 nM for the first, over 2500 nM for the second.

`CC1CCCc2cc(O)cc(-c3c(Cl)cc4c(N5C[C@H]6CC[C@@H](C5)N6)nc(OC[C@@]56CCCN5C[C@H](F)C6)nc4c3F)c21` (stereo partly drawn) [Example 301, 4-(4-((1R,5S)-3,8-diazabicyclo[3.2.1]octan-3-yl)-6-chloro-8-fluoro-2-(((2R,7aS)-2-fluorotetrahydro-1H-pyrrolizin-7a(5H)-yl)methoxy)quinazolin-7-yl)-5-methyl-5,6,7,8-tetrahydronaphthalen-2-ol] and `CC1CCc2cc(O)cc(-c3c(Cl)cc4c(N5C[C@H]6CC[C@@H](C5)N6)nc(OC[C@@]56CCCN5C[C@H](F)C6)nc4c3F)c21` (stereo partly drawn) [Example 304, 7-(4-((1R,5S)-3,8-diazabicyclo[3.2.1]octan-3-yl)-6-chloro-8-fluoro-2-(((2R,7aS)-2-fluorotetrahydro-1H-pyrrolizin-7a(5H)-yl)methoxy)quinazolin-7-yl)-1-methyl-2,3-dihydro-1H-inden-5-ol] are within 1.5-fold of each other in IC50: 28 nM for the first, 35 nM for the second.

First: CCc1cccc2cc(O)cc(N3CCc4c(nc(OC[C@@]56CCCN5C[C@H](F)C6)nc4N4C[C@H]5CC[C@@H](C4)N5)C3)c12 [Example 207, 4-(4-((1R,5S)-3,8-diazabicyclo[3.2.1]octan-3-yl)-2-(((2R,7aS)-2-fluorotetrahydro-1H-pyrrolizin-7a(5H)-yl)methoxy)-5,8-dihydropyrido[3,4-d]pyrimidin-7(6H)-yl)-5-ethylnaphthalen-2-ol]
Second: CCc1cccc2cc(O)cc(-c3ncc4c(N5C[C@H]6CC[C@@H](C5)O6)nc(OC[C@@]56CCCN5C[C@H](F)C6)nc4c3F)c12 [Example 14, 4-(4-((1R,5S)-8-oxa-3-azabicyclo[3.2.1]octan-3-yl)-8-fluoro-2-(((2R,7aS)-2-fluorotetrahydro-1H-pyrrolizin-7a(5H)-yl)methoxy)pyrido[4,3-d]pyrimidin-7-yl)-5-ethylnaphthalen-2-ol]
The IC50 of the first is 13-fold lower: 25 nM for the first, 330 nM for the second. The first is the more potent here.

Going from `CCc1c(F)ccc2cc(O)cc(-c3ccc4c(N5C[C@H]6CC[C@@H](C5)C6(F)F)nc(OC[C@@]56CCCN5C[C@H](F)C6)nc4c3F)c12` [Example 120, 4-(4-((1R,5S)-8,8-difluoro-3-azabicyclo [3.2.1]octan-3-yl)-8-fluoro-2-(((2R,7aS)-2-fluorotetrahydro-1H-pyrrolizin-7a(5H)-yl)methoxy)quinazolin-7-yl)-5-ethyl-6-fluoronaphthalen-2-ol] to `C#Cc1c(F)ccc2cc(O)cc(-c3ccc4c(N5C[C@H]6CC[C@@H](C5)N6)nc(OC[C@@]56CCCN5C[C@H](F)C6)nc4c3)c12` [Example 148, 4-(4-((1R,5S)-3,8-diazabicyclo[3.2.1]octan-3-yl)-2-(((2R, 7aS)-2-fluorotetrahydro-1H-pyrrolizin-7a(5H)-yl)methoxy)quinazolin-7-yl)-5-ethynyl-6-fluoronaphthalen-2-ol], the IC50 falls from over 2500 nM to 318 nM. The second is the more potent here.

`C#Cc1c(F)ccc2cc(O)cc(-c3ccc4c(N5C[C@H]6CC[C@@H](C5)N6)c(C(F)(F)F)c(OC[C@@]56CCCN5C[C@H](F)C6)nc4c3)c12` [Example 183, 4-(4-((1R,5S)-3,8-diazabicyclo[3.2.1]octan-3-yl)-2-(((2R,7aS)-2-fluorotetrahydro-1H-pyrrolizin-7a(5H)-yl)methoxy)-3-(trifluoromethyl)quinolin-7-yl)-5-ethynyl-6-fluoronaphthalen-2-ol] showed an IC50 of over 2500 nM.
